The test has as its system cardiomyocytes. In words: Adult primary cardiomyocyte glucose uptake test. Format: cell-based, mouse. The conditions noted are these: db/db cardiomyocytes, 10 nM insulin, metformin (20 µM) positive control. Here is the method: Adult mouse cardiomyocytes were isolated from both male and female mice with collagenase II (2 mg/mL, Worthington Biochemical Corporation). Freshly isolated cardiomyocytes were seeded in laminin-precoated culture dishes and cultured in perfusion buffer (120.4 mM NaCl, 14.7 mM KCl, 0.6 mM KH2PO4, 0.6 mM Na2HPO4, 1.2 mM MgSO4×7H2O, 10 mM Hepes, 4.6 mM NaHCO3, 30 mM taurine, and 5.5 mM glucose) for 1 hour in 37° C. and 5% CO2 incubator prior to further experiments.
For glucose uptake assays, freshly isolated CMCs were seeded and cultured in laminin-precoated 96-well plates for 1 hour prior to the test. Cells were then washed twice with glucose-free perfusion buffer (120.4 mM NaCl, 14.7 mM KCl, 0.6 mM KH2PO4, 0.6 mM Na2HPO4, 1.2 mM MgSO4: 7H2O, 10 mM HEPES) and starved in starvation buffer (glucose-free perfusion buffer containing 1 mM pyruvate, 0.1% BSA) for 40 min. Metformin (0, 20 μM) was loaded together with starvation buffer in the indicated groups. Cells were then stimulated in the absence or presence of insulin (0, 10 nM) (Sigma-Aldrich) for 20 min. Following the manufacturer's instructions, 2 DG-glucose uptake test in CMCs was then determined by Glucose Uptake Assay kit (Abcam) and quantified with a FlexStation 3 plate reader (Molecular Devices).

As to `CN(C)C(=N)N=C(N)N` [metformin], the “insulin-stimulated uptake of 2-Deoxy-D-glucose” value is reported as “rescue”.
